Data published in article PMC8769072, “Proteome‐scale mapping of binding sites in the unstructured regions of the human proteome” (Molecular Systems Biology, 2022).
Where a SMILES comes first, the peptide text is derived from it. [ ]: non-standard residue; d: D form. pY = N[C@@H](Cc1ccc(OP(=O)(O)O)cc1)C(=O)O; pS = N[C@@H](COP(=O)(O)O)C(=O)O

Columns and labels:
[1] = molecular target: T1, KPNA4 ARM (Homo sapiens, UniProt O00629); assay: FP competition, KPNA4 ARM minor pocket (FITC-NCOR2 probe); assay type: binding; settings: for effect of phosphorylation on the affinity for KPNA4, in words: FP competition with FITC-NCOR2 probe, phosphorylated versus unphosphorylated NCOR1 peptide
T1 construct: O00629; KPNA4; Arm; 68; 487; pETM33/pETM41; Genescript; made in house; host or cells: bacteria (E. coli BL21(DE3) gold is named only for the phage-selection preparations)
T1 sequence (O00629 68-487): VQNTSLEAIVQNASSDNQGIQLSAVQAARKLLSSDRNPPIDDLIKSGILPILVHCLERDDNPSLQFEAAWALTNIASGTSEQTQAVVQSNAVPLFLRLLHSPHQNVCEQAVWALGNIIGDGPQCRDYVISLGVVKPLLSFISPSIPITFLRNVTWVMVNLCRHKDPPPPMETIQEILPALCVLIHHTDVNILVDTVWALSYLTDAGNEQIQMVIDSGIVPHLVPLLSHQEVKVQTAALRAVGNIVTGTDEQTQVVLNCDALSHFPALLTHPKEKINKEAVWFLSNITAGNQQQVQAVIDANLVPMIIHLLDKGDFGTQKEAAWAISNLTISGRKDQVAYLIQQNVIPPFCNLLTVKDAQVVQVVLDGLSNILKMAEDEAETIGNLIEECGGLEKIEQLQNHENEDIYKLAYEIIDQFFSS
Source text: Like other importins, KPNA4 has two distinct NLS‐binding pockets on the surface of an armadillo (ARM) repeat fold (major pocket, ARM 2–4; minor pocket, ARM 6–8; Fig 5B) (Smith et al, [2018]). Bipartite NLSs are usually 17–19 amino acids long and engage both pockets. Monopartite NLSs are short basic stretches, divided into five classes (Kosugi et al, [2009]): class I KR[KR]R or K[KR]RK, class II [PR]xxKR[^DE][KR] (where ^ indicates “not”), class III KRx[WFY]xxAF, class IV [RP]xxKR[KR][^DE], and class V LGKR[KR][WFY]. The class I and class II motifs preferentially interact with the major pocket (Kosugi et al, [2009]). In contrast, class III and class IV NLSs preferentially bind to the minor pocket. Using KPNA4 as a bait against the HD2 P8 library we identified 33 peptides found in 32 proteins. Of the 26 proteins for which information was available, 22 proteins were annotated as having nuclear or nucleolar localization in the UniProt database. To gain additional information we combined the data generated for KPNA4 by screening against the complete P8 HD2 library, with the results generated using two relevant sublibraries (the cytoplasmic and nuclear, and nuclear sublibraries) resulting in a set of 92 peptides containing NLS‐like sequences found in 76 proteins. Using these peptides we could generate consensus motifs that matched four of the previously reported NLS classes (Fig 5A; class I‐IV). […] Three peptides bound only to the major pocket. Eight peptides with class III motif and one KRxH‐containing peptide only bound to the minor pocket. Five peptides outcompeted both probe peptides, which may be explained by the amino acid sequence matching both class II and class III motifs (e.g., 1135‐ PSPKRKL ‐1139 in ZNF532; Fig 5), and possibly by cross specificity of the two binding pockets.

[2] = test system: immobilized GST-tagged bait protein domains; assay: ProP-PD phage selections (HD2 P8, sublibraries, HD2 P3, HD1 P8) with NGS and confidence level; assay type: binding, human; settings: for HD2_endomembrane confidence: HD2 P8 endomembrane sublibrary
[3] = bait CRK_SH3_1_P46108_124_198, library HD2, benchmarking set of validated motif instances, TRUE = motif instance recovered in the ProP-PD selection
[4] = bait MAP1LC3A_ATG8__Q9H492_2_121, confidence level (4 = High, 2-3 = Medium, 1 = Low)
[5] = bait MAP1LC3A_ATG8 (Q9H492 2-121), HD2 library, benchmark motif instance recovered in the ProP-PD selection (TRUE/FALSE)
[6] = bait MAP1LC3A_ATG8 (Q9H492 2-121), HD2 library, confidence level (1-4) of best matching peptide
[7] = bait MAP1LC3A_ATG8 (Q9H492 2-121), HD2 library, specificity score of best matching peptide

CC[C@H](C)[C@H](NC(=O)[C@H](CC(N)=O)NC(=O)CNC(=O)[C@H](CCC(=O)O)NC(=O)[C@@H](NC(=O)[C@H](CO)NC(=O)[C@H](CCC(=O)O)NC(=O)[C@H](Cc1ccc(O)cc1)NC(=O)[C@H](CO)NC(=O)[C@H](CCCNC(=N)N)NC(=O)[C@H](CCCCN)NC(=O)[C@H](CC(C)C)NC(=O)[C@H](COP(=O)(O)O)NC(=O)[C@@H](NC(=O)[C@H](CCC(=O)O)NC(C)=O)[C@@H](C)CC)C(C)C)C(=O)N[C@@H](CCCCN)C(N)=O [NCOR1 pS1242] (Ac-EI[pS]LKRSYESVEGNIK-NH2)
IC50 [1]: 31 µM
effect of phosphorylation on the affinity for KPNA4, in words [1]: minor effects

CC[C@H](C)[C@H](NC(=O)[C@H](CC(N)=O)NC(=O)CNC(=O)[C@H](CCC(=O)O)NC(=O)[C@@H](NC(=O)[C@H](CO)NC(=O)[C@H](CCC(=O)O)NC(=O)[C@H](Cc1ccc(O)cc1)NC(=O)[C@H](COP(=O)(O)O)NC(=O)[C@H](CCCNC(=N)N)NC(=O)[C@H](CCCCN)NC(=O)[C@H](CC(C)C)NC(=O)[C@H](CO)NC(=O)[C@@H](NC(=O)[C@H](CCC(=O)O)NC(C)=O)[C@@H](C)CC)C(C)C)C(=O)N[C@@H](CCCCN)C(N)=O [NCOR1 pS1246] (Ac-EISLKR[pS]YESVEGNIK-NH2)
IC50 [1]: 240 µM
effect of phosphorylation on the affinity for KPNA4, in words [1]: marked loss of affinity

CC[C@H](C)[C@H](NC(=O)[C@H](CC(N)=O)NC(=O)CNC(=O)[C@H](CCC(=O)O)NC(=O)[C@@H](NC(=O)[C@H](CO)NC(=O)[C@H](CCC(=O)O)NC(=O)[C@H](Cc1ccc(OP(=O)(O)O)cc1)NC(=O)[C@H](CO)NC(=O)[C@H](CCCNC(=N)N)NC(=O)[C@H](CCCCN)NC(=O)[C@H](CC(C)C)NC(=O)[C@H](CO)NC(=O)[C@@H](NC(=O)[C@H](CCC(=O)O)NC(C)=O)[C@@H](C)CC)C(C)C)C(=O)N[C@@H](CCCCN)C(N)=O [NCOR1 pY1247] (Ac-EISLKRS[pY]ESVEGNIK-NH2)
IC50 [1]: 21 µM
effect of phosphorylation on the affinity for KPNA4, in words [1]: minor effects

VPNVHAAEFVPSFLRG
best_confidence ([2]; bait PABP-B_PABP__P11940_544_623, HD2 library, confidence level (1-4) of best matching selected peptide): 4
best_specificity ([2]; bait PABP-B_PABP__P11940_544_623, HD2 library, specificity score of best matching selected peptide): 1
motif_found ([2]; bait PABP-B_PABP__P11940_544_623, HD2 library, whether the validated benchmark motif instance was recovered in the ProP-PD selection (TRUE/FALSE)): TRUE

VPSPASLWPPPPSPAPSST
motif_found ([2]; library HD2, bait VASP_EVH1__P50552_1_114, validated benchmark motif instance, in_library_check TRUE, TRUE/FALSE = instance recovered in ProP-PD selection): FALSE

VPTLPPKQQFLPSSPG
HD2_nc confidence ([2]; bait CRK_SH3_1_P46108_124_198, HD2 P8 nucleocytoplasmic sublibrary, confidence level (4 = High, 2-3 = Medium, 1 = Low)): 4
HD2_nc mean counts ([2]; bait CRK_SH3_1_P46108_124_198, HD2 P8 nucleocytoplasmic sublibrary, mean NGS counts over replicate selections): 1917.0
HD2_nc count proportions ([2]; bait CRK_SH3_1_P46108_124_198, HD2 P8 nucleocytoplasmic sublibrary, mean proportion of NGS counts): 0.01185

VQPKQDAFANFANFSK
HD confidence ([2]; bait AP2B1_adaptin__P63010_700_937, library HD): 2
HD count proportions ([2]; bait AP2B1_adaptin__P63010_700_937, library HD, mean normalised NGS counts): 0.0004926
HD mean counts ([2]; bait AP2B1_adaptin__P63010_700_937, library HD, mean raw NGS counts, all selections): 1.25

VSGSHCTPPPPYHADP
best_confidence ([2]; library HD2, bait YAP1_WW_1_P46937_169_207, confidence level of best matching selected peptide (4 High, 2-3 Medium, 1 Low)): 4
best_specificity ([2]; library HD2, bait YAP1_WW_1_P46937_169_207, specificity score of best matching selected peptide): 0.99
motif_found ([2]; library HD2, bait YAP1_WW_1_P46937_169_207, validated benchmark motif instance, in_library_check TRUE, TRUE/FALSE = instance recovered in ProP-PD selection): TRUE

VSPSTSY
motif_found ([2]; library HD2, bait USP7_MATH-TRAF__Q93009_53_206, validated benchmark motif instance, in_library_check TRUE, TRUE/FALSE = instance recovered in ProP-PD selection): FALSE

VSSAAPSPRGCADGRDADPTEE
motif_found ([2]; HD2 library, bait TNKS_TANK-peptide-bind__O95271_174_649, known motif instance of the benchmarking set found (TRUE) or not found (FALSE) among selected peptides): FALSE

VSVDSIPLEWDHTGDVGGSSSHE
motif_found ([2]; library HD2, bait KLC1_TPR__Q07866_203_497, whether the validated benchmark motif instance was recovered in the ProP-PD selection (TRUE/FALSE)): FALSE

VVDNSPPPALPPKKRQSAPS [RAPGEF1]
motif_found [2, 3]: FALSE

VVHSAGRRFIVSPVPESRL
motif_found ([2]; bait OXSR1___O95747_434_527, HD2 library, whether the validated benchmark motif instance was recovered in the ProP-PD selection (TRUE/FALSE)): FALSE

WADFSSTWPTSTNEKP
HD2_endomembrane confidence ([2]; bait AP2B1_adaptin__P63010_700_937, confidence level (4 = High, 2-3 = Medium, 1 = Low)): 4

WAKFSNDNIKHSQNMR
HD confidence ([2]; bait AP2B1_adaptin__P63010_700_937, HD1 P8 library, confidence level (4 = High, 2-3 = Medium, 1 = Low)): 4
HD mean counts ([2]; bait AP2B1_adaptin__P63010_700_937, HD1 P8 library, mean NGS counts over replicate selections): 1.5
HD count proportions ([2]; bait AP2B1_adaptin__P63010_700_937, HD1 P8 library, mean proportion of NGS counts): 0.0005262

WEALNDSVKTSMHWVV
HD2-1mM_CaCl confidence ([2]; bait CALM1 EF-hand (P0DP23, 2-149), HD2 library selection with 1mM_CaCl, confidence level (4 = High, 2 or 3 = Medium, 1 = Low)): 2
HD2 confidence ([2]; bait CALM1 EF-hand (P0DP23, 2-149), HD2 library selection, confidence level (4 = High, 2 or 3 = Medium, 1 = Low)): 3

WEMVPRHSSWGDVGVG
HD2_endomembrane confidence [2, 4]: 4

WNERQPAPALPPKPPKPTTV [PIK3R1]
motif_found [2, 3]: TRUE

WQPFPDDHSACLRPGS
HD2 confidence ([2]; bait AP2B1_adaptin__P63010_700_937, HD2 P8 selection, non primary paralogue peptide match, confidence level -4 to 4: 4 = High, 3 or 2 = Medium, 1 = Low, 0 = Filtered/Noise): 3

WRVLGLCLLSVGVWGQ
HD2_cytoplasm confidence ([2]; bait CALM1_EF-hand__P0DP23_2_149, HD2 P8 cytoplasm sublibrary, confidence level (4 = High, 2-3 = Medium, 1 = Low)): 3

WTHLSSKEVDPSTGEL
motif_found [2, 5]: TRUE
best_confidence [2, 6]: 4
best_specificity [2, 7]: 1
motif_found ([2]; bait MAP1LC3B_ATG8 (Q9GZQ8 2-119), HD2 library, benchmark motif instance recovered in the ProP-PD selection (TRUE/FALSE)): TRUE
best_confidence ([2]; bait MAP1LC3B_ATG8 (Q9GZQ8 2-119), HD2 library, confidence level (1-4) of best matching peptide): 3
best_specificity ([2]; bait MAP1LC3B_ATG8 (Q9GZQ8 2-119), HD2 library, specificity score of best matching peptide): 1

WTMVDENFSTLSLTQS
HD2_endomembrane confidence [2, 4]: 4

WVELPMNSSNGNDNGN
motif_found [2, 5]: TRUE
best_confidence [2, 6]: 2
best_specificity [2, 7]: 1

YAKKVGYTPDWIFLLRNVMRI [CLTC 511-517]
motif_found ([2]; HD2 library, bait MAP1LC3A_ATG8__Q9H492_2_121, benchmark motif instance, in_library_check FALSE, in_library_coverage 0): FALSE
motif_found ([2]; HD2 library, bait MAP1LC3B_ATG8__Q9GZQ8_2_119, benchmark motif instance, in_library_check FALSE, in_library_coverage 0): FALSE

YDREFLLDFQFMPACI
best_specificity ([2]; library HD2, bait EIF4E_eIF4E__P06730_1_217, best matching peptide): 1
best_confidence ([2]; library HD2, bait EIF4E_eIF4E__P06730_1_217, confidence level of best matching peptide (4 High, 2-3 Medium, 1 Low)): 2
motif_found ([2]; library HD2, bait EIF4E_eIF4E__P06730_1_217, whether the validated benchmark motif instance was recovered in the ProP-PD selection (TRUE/FALSE)): TRUE

YRLARQRIIQFQARCRAYLVRKAFRHRLWAV [MYO7A 817-833]
motif_found ([2]; HD2 library, bait CALM1_EF-hand__P0DP23_2_149, benchmark motif instance, in_library_check FALSE, in_library_coverage 0): FALSE

YSFFSPSPARKRHAPSPEPAV
motif_found ([2]; bait KPNA4_Arm (O00629 68-487), HD2 library, benchmark motif instance recovered in the ProP-PD selection (TRUE/FALSE)): FALSE

YTSPSLPNISLGLQAT
best_specificity ([2]; bait ANKRA2_Ank__Q9H9E1_142_313, library HD2, best matching peptide): 1
best_confidence ([2]; bait ANKRA2_Ank__Q9H9E1_142_313, library HD2, confidence level of best matching peptide (4 = High, 2 or 3 = Medium, 1 = Low)): 4
